Tested on: HCV type 1b replicon in Huh-7 luc/neo (Huh-Luc) cells
Assay: HCV replicon assay (Huh-Luc cells, luciferase read-out)
Assay type: cell-based
Conditions: inhibition of HCV replication, three days incubation, luciferase activity
From the text: The in vitro antiviral activity against HCV of the compounds of formula I can be tested in a cellular HCV replicon system based on Lohmann et al. (1999) Science 285:110-113, with the further modifications described by Krieger et al. (2001) Journal of Virology 75: 4614-4624 (incorporated herein by reference), which is further exemplified in the examples section. This model, while not a complete infection model for HCV, is widely accepted as the most robust and efficient model of autonomous HCV RNA replication currently available. It will be appreciated that it is important to distinguish between compounds that specifically interfere with HCV functions from those that exert cytotoxic or cytostatic effects in the HCV replicon model, and as a consequence cause a decrease in HCV RNA or linked reporter enzyme concentration. Assays are known in the field for the evaluation of cellular cytotoxicity based for example on the activity of mitochondrial enzymes using fluorogenic redox dyes such as resazurin. Furthermore, cellular counter screens exist for the evaluation of non-selective inhibition of linked reporter gene activity, such as firefly luciferase. Appropriate cell types can be equipped by stable transfection with a luciferase reporter gene whose expression is dependent on a constitutively active gene promoter, and such cells can be used as a counter-screen to eliminate non-selective inhibitors.
The compounds of formula I may be examined for activity in the inhibition of HCV RNA replication in a cellular assay aimed at identifying compounds that inhibit a HCV functional cellular replicating cell line, also known as HCV replicons. A suitable cellular assay is based on a bicistronic expression construct, as described by Lohmann et al. (1999), Science vol. 285 pp. 110-113 with modifications described by Krieger et al. (2001), Journal of Virology 75: 4614-4624, in a multi-target screening strategy.
The assay utilizes the stably transfected cell line Huh-7 luc/neo (hereafter referred to as Huh-Luc). This cell line harbors an RNA encoding a bicistronic expression construct comprising the wild type NS3-NS5B regions of HCV type 1b translated from an Internal Ribosome Entry Site (IRES) from encephalomyocarditis virus (EMCV), preceded by a reporter portion (FfL-luciferase), and a selectable marker portion (neo^R, neomycine phosphotransferase). The construct is bordered by 5′ and 3′ NTRs (non-translated regions) from HCV type 1b. Continued culture of the replicon cells in the presence of G418 (neo^R) is dependent on the replication of the HCV RNA. The stably transfected replicon cells that express HCV RNA, which replicates autonomously and to high levels, encoding inter alia luciferase, are used for screening the antiviral compounds.
The replicon cells are plated in 384 well plates in the presence of the test and control compounds which are added in various concentrations. Following an incubation of three days, HCV replication is measured by assaying luciferase activity (using standard luciferase assay substrates and reagents and a Perkin Elmer ViewLux™ ultraHTS microplate imager). Replicon cells in the control cultures have high luciferase expression in the absence of any inhibitor. The inhibitory activity of a compound on luciferase activity is monitored on the Huh-Luc cells, enabling a dose-response curve for each test compound. EC50 values are then calculated, which value represents the amount of the compound required to decrease the level of detected luciferase activity by 50%, or more specifically, the ability of the genetically linked HCV replicon RNA to replicate.

SMILES | EC50 [µM]
C[C@H](NP(=O)(OC[C@H]1O[C@@H](n2ccc(=O)[nH]c2=O)[C@](C)(N)[C@@H]1O)Oc1ccccc1)C(=O)OC1CCCC1 (single isomer, unassigned) [Example 5A] | 4.7
C[C@H](NP(=O)(OC[C@H]1O[C@@H](n2ccc(=O)[nH]c2=O)[C@](C)(N)[C@@H]1O)Oc1ccccc1)C(=O)OC1CCCC1 (single isomer, unassigned) [Example 5B] | 0.47
C[C@H](NP(=O)(OC[C@H]1O[C@@H](n2ccc(=O)[nH]c2=O)[C@](C)(N)[C@@H]1O)Oc1ccccc1)C(=O)OCCC(C)(C)C (single isomer, unassigned) [Example 6A] | 2.3
C[C@H](NP(=O)(OC[C@H]1O[C@@H](n2ccc(=O)[nH]c2=O)[C@](C)(N)[C@@H]1O)Oc1ccccc1)C(=O)OCCC(C)(C)C (single isomer, unassigned) [Example 6B] | 0.49
C[C@H](NP(=O)(OC[C@H]1O[C@@H](n2ccc(=O)[nH]c2=O)[C@](C)(N)[C@@H]1O)Oc1ccccc1)C(=O)OC1CCCCCC1 (single isomer, unassigned) [Example 7A] | 3
C[C@H](NP(=O)(OC[C@H]1O[C@@H](n2ccc(=O)[nH]c2=O)[C@](C)(N)[C@@H]1O)Oc1ccccc1)C(=O)OC1CCCCCC1 (single isomer, unassigned) [Example 7B] | 0.19
C[C@H](NP(=O)(OC[C@H]1O[C@@H](n2ccc(=O)[nH]c2=O)[C@](C)(N)[C@@H]1O)Oc1ccccc1)C(=O)OC1CCC1 (single isomer, unassigned) [Example 8A] | 1.9
C[C@H](NP(=O)(OC[C@H]1O[C@@H](n2ccc(=O)[nH]c2=O)[C@](C)(N)[C@@H]1O)Oc1ccccc1)C(=O)OC1CCC1 (single isomer, unassigned) [Example 8B] | 0.8
CC(C)OC(=O)[C@H](C)NP(=O)(OC[C@H]1O[C@@H](n2ccc(=O)[nH]c2=O)[C@](C)(N)[C@@H]1O)Oc1ccccc1 (single isomer, unassigned) [Example 9A] | 13
CC(C)OC(=O)[C@H](C)NP(=O)(OC[C@H]1O[C@@H](n2ccc(=O)[nH]c2=O)[C@](C)(N)[C@@H]1O)Oc1ccccc1 (single isomer, unassigned) [Example 9B] | 0.92
C[C@H](NP(=O)(OC[C@H]1O[C@@H](n2ccc(=O)[nH]c2=O)[C@](C)(N)[C@@H]1O)Oc1ccccc1)C(=O)OC1CCCCCCC1 (single isomer, unassigned) [Example 10A] | 15
C[C@H](NP(=O)(OC[C@H]1O[C@@H](n2ccc(=O)[nH]c2=O)[C@](C)(N)[C@@H]1O)Oc1ccccc1)C(=O)OC1CCCCCCC1 (single isomer, unassigned) [Example 10B] | 0.29
CCOC(=O)[C@H](C)NP(=O)(OC[C@H]1O[C@@H](n2ccc(=O)[nH]c2=O)[C@](C)(N)[C@@H]1O)Oc1ccccc1 (single isomer, unassigned) [Example 11A] | 6.4
CCOC(=O)[C@H](C)NP(=O)(OC[C@H]1O[C@@H](n2ccc(=O)[nH]c2=O)[C@](C)(N)[C@@H]1O)Oc1ccccc1 (single isomer, unassigned) [Example 11B] | 0.98
C[C@H](NP(=O)(OC[C@H]1O[C@@H](n2ccc(=O)[nH]c2=O)[C@](C)(N)[C@@H]1O)Oc1ccccc1)C(=O)OC1CCCCC1 (single isomer, unassigned) [Example 12A] | 0.38
C[C@H](NP(=O)(OC[C@H]1O[C@@H](n2ccc(=O)[nH]c2=O)[C@](C)(N)[C@@H]1O)Oc1ccccc1)C(=O)OC1CCCCC1 (single isomer, unassigned) [Example 12B] | 0.13
C[C@H](NP(=O)(OC[C@H]1O[C@@H](n2ccc(=O)[nH]c2=O)[C@](C)(N)[C@@H]1O)Oc1ccccc1)C(=O)OCC(C)(C)C (single isomer, unassigned) [Example 13A] | 2.4

SMILES | EC50 [µM]
C[C@H](NP(=O)(OC[C@H]1O[C@@H](n2ccc(=O)[nH]c2=O)[C@](C)(N)[C@@H]1O)Oc1ccccc1)C(=O)OCC(C)(C)C (single isomer, unassigned) [Example 13B] | 0.3
CCCC(CCC)COC(=O)[C@H](C)NP(=O)(OC[C@H]1O[C@@H](n2ccc(=O)[nH]c2=O)[C@](C)(N)[C@@H]1O)Oc1ccccc1 (single isomer, unassigned) [Example 14A] | 1.6
CCCC(CCC)COC(=O)[C@H](C)NP(=O)(OC[C@H]1O[C@@H](n2ccc(=O)[nH]c2=O)[C@](C)(N)[C@@H]1O)Oc1ccccc1 (single isomer, unassigned) [Example 14B] | 0.42
C[C@H](NP(=O)(OC[C@H]1O[C@@H](n2ccc(=O)[nH]c2=O)[C@](C)(N)[C@@H]1O)Oc1ccccc1)C(=O)OCc1ccccc1 (single isomer, unassigned) [Example 15A] | 3.1
C[C@H](NP(=O)(OC[C@H]1O[C@@H](n2ccc(=O)[nH]c2=O)[C@](C)(N)[C@@H]1O)Oc1ccccc1)C(=O)OCc1ccccc1 (single isomer, unassigned) [Example 15B] | 0.66
COC(=O)[C@H](C)NP(=O)(OC[C@H]1O[C@@H](n2ccc(=O)[nH]c2=O)[C@](C)(N)[C@@H]1O)Oc1ccccc1 (single isomer, unassigned) [Example 16A] | 5.1
COC(=O)[C@H](C)NP(=O)(OC[C@H]1O[C@@H](n2ccc(=O)[nH]c2=O)[C@](C)(N)[C@@H]1O)Oc1ccccc1 (single isomer, unassigned) [Example 16B] | 2.1
CC(C)COC(=O)[C@H](C)NP(=O)(OC[C@H]1O[C@@H](n2ccc(=O)[nH]c2=O)[C@](C)(N)[C@@H]1O)Oc1ccccc1 (single isomer, unassigned) [Example 17A] | 2.6
CC(C)COC(=O)[C@H](C)NP(=O)(OC[C@H]1O[C@@H](n2ccc(=O)[nH]c2=O)[C@](C)(N)[C@@H]1O)Oc1ccccc1 (single isomer, unassigned) [Example 17B] | 0.6
CCCCCOC(=O)[C@H](C)NP(=O)(OC[C@H]1O[C@@H](n2ccc(=O)[nH]c2=O)[C@](C)(N)[C@@H]1O)Oc1ccccc1 (single isomer, unassigned) [Example 18A] | 1.8
CCCCCOC(=O)[C@H](C)NP(=O)(OC[C@H]1O[C@@H](n2ccc(=O)[nH]c2=O)[C@](C)(N)[C@@H]1O)Oc1ccccc1 (single isomer, unassigned) [Example 18B] | 0.32
CCCCOC(=O)[C@H](C)NP(=O)(OC[C@H]1O[C@@H](n2ccc(=O)[nH]c2=O)[C@](C)(N)[C@@H]1O)Oc1ccccc1 (single isomer, unassigned) [Example 19A] | 1.4
CCCCOC(=O)[C@H](C)NP(=O)(OC[C@H]1O[C@@H](n2ccc(=O)[nH]c2=O)[C@](C)(N)[C@@H]1O)Oc1ccccc1 (single isomer, unassigned) [Example 19B] | 0.29
CCC(CC)COC(=O)[C@H](C)NP(=O)(OC[C@H]1O[C@@H](n2ccc(=O)[nH]c2=O)[C@](C)(N)[C@@H]1O)Oc1ccccc1 (single isomer, unassigned) [Example 20A] | 1.6
CCC(CC)COC(=O)[C@H](C)NP(=O)(OC[C@H]1O[C@@H](n2ccc(=O)[nH]c2=O)[C@](C)(N)[C@@H]1O)Oc1ccccc1 (single isomer, unassigned) [Example 20B] | 0.4
CC[C@@H](C)OC(=O)[C@H](C)NP(=O)(OC[C@H]1O[C@@H](n2ccc(=O)[nH]c2=O)[C@](C)(N)[C@@H]1O)Oc1ccccc1 (single isomer, unassigned) [Example 21A] | 5.1
